According to US20190134005A1 (BioMarin Pharmaceutical Inc., priority 2016, published 2019):

molecular target: T1, human CGT (Homo sapiens, UniProt Q16880); test: Assay 1: CGT Enzymatic Assay (RapidFire/MS/MS, 0.01% Tween 80); format: biochemical; details: Table 1, Compounds of Formula (I) and Formula (II); CGT enzymatic assay, C6-NBD-dihydro-galactosylceramide readout; read-out: IC50
T1 sequence (Q16880 21-541): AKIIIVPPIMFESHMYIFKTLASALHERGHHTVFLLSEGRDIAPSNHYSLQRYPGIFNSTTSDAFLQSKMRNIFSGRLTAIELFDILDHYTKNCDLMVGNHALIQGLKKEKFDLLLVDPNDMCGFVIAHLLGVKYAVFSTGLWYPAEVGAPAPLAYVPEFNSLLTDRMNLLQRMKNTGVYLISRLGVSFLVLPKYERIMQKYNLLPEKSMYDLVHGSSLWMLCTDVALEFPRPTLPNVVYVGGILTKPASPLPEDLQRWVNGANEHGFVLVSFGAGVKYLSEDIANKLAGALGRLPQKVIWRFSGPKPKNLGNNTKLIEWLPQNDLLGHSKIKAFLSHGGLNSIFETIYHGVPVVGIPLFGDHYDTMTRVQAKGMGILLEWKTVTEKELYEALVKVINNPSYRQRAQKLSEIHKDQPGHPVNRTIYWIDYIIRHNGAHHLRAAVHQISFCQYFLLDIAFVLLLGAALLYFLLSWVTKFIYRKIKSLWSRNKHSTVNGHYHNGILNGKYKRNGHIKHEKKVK

IC50 [µM] | SMILES
< 1 | Cc1ccc(N2C(=O)N(c3ccc(Cl)cc3)C(O)(c3cccc(OC(F)(F)F)c3)C23COC3)cc1 (centres unmarked) [Example 311, 7-(4-chlorophenyl)-8-hydroxy-5-(p-tolyl)-8-(3-(trifluoromethoxy)phenyl)-2-oxa-5,7-diazaspiro[3.4]octan-6-one]
< 1 | Cc1ccc(N2C(=O)N(c3ccc(Cl)cc3)C3(CCC3)C2(O)c2cccc(OC(F)(F)F)c2)cc1 (centres unmarked) [Example 333, 5-(4-chlorophenyl)-8-hydroxy-7-(p-tolyl)-8-(3-(trifluoromethoxy)phenyl)-5,7-diazaspiro[3.4]octan-6-one]
< 1 | CC1(C)N(c2ccc(C#N)cc2)C(=O)N(c2ccc(Cl)cc2)C1(O)c1cccc(C#N)c1 (centres unmarked) [Example 309, 3-(3-(4-chlorophenyl)-1-(4-cyanophenyl)-4-hydroxy-5,5-dimethyl-2-oxoimidazolidin-4-yl)benzonitrile]
1 to 10 | CC1(C)N(c2ccc(Cl)cc2)C(=O)N(c2ccc(Cl)cc2)C1(O)c1cccc(C2COC2)c1 (centres unmarked) [Example 324-2, 1,3-bis(4-chlorophenyl)-4-hydroxy-5,5-dimethyl-4-(3-(oxetan-3-yl)phenyl)imidazolidin-2-one]
< 1 | Cc1ccc(N2C(=O)N(c3ccc(C#N)cc3)C(O)(c3cccc(C#N)c3)C23CCC3)cc1 (centres unmarked) [Compound 282, 3-(7-(4-cyanophenyl)-8-hydroxy-6-oxo-5-(p-tolyl)-5,7-diazaspiro[3.4]octan-8-yl)benzonitrile]

SMILES | IC50 [µM]
Cc1ccc(N2C(=O)N(c3ccc(C#N)cc3)C3(COC3)C2(O)c2cccc(C#N)c2)cc1 (centres unmarked) [Compound 278, 3-(5-(4-cyanophenyl)-8-hydroxy-6-oxo-7-(p-tolyl)-2-oxa-5,7-diazaspiro[3.4]octan-8-yl)benzonitrile] | < 1
Cc1ccc(N2C(=O)N(c3ccc(C#N)cc3)C3(CCC3)C2(O)c2cccc(C#N)c2)cc1 (centres unmarked) [Compound 280, 3-(5-(4-cyanophenyl)-8-hydroxy-6-oxo-7-(p-tolyl)-5,7-diazaspiro[3.4]octan-8-yl)benzonitrile] | < 1

same assay, conditions: Table 1, Compounds of Formula (I) and Formula (II); CGT enzymatic assay; read-out: IC50

SMILES | IC50 [µM]
O=C1N(c2ccc(Br)cc2)CC(O)(c2ccccc2)N1c1ccc(Br)cc1 (centres unmarked) [Example 1] | 1 to 10
O=C1N(c2ccc(Cl)cc2)C2(COC2)C(O)(c2cccc(OC(F)(F)F)c2)N1c1ccc(Cl)cc1 (centres unmarked) [Compound 150, 5,7-bis(4-chlorophenyl)-8-hydroxy-8-(3-(trifluoromethoxy)phenyl)-2-oxa-5,7-diazaspiro[3.4]octan-6-one] | < 1
N#Cc1ccc(N2CC(O)(c3ccccc3)N(c3ccc(C#N)cc3)C2=O)cc1 (centres unmarked) [Compound 111, 4,4′-(4-hydroxy-2-oxo-4-phenylimidazolidine-1,3-diyl)dibenzonitrile] | > 50
O=C1N(c2ccc(Br)cc2)C(=O)C(O)(c2ccc(N3CCCCC3)cc2)N1c1ccc(Br)cc1 (centres unmarked) [Example 173, 1,3-bis(4-bromophenyl)-5-hydroxy-5-(4-(piperidin-1-yl)phenyl)imidazolidine-2,4-dione] | > 50
O=C1N(c2ccc(Cl)cc2)CC(O)(c2cc(Cl)cc(Cl)c2)N1c1ccc(Cl)cc1 (centres unmarked) [Compound 85, 1,3-bis(4-chlorophenyl)-4-(3,5-dichlorophenyl)-4-hydroxyimidazolidin-2-one] | 1 to 10
CC1(C)N(c2ccc(Cl)cc2)C(=O)N(c2ccc(Cl)cc2)C1(O)c1cc(C#N)cc(C#N)c1 (centres unmarked) [Example 188, 5-(1,3-bis(4-chlorophenyl)-4-hydroxy-5,5-dimethyl-2-oxoimidazolidin-4-yl)isophthalonitrile] | < 1
COc1cccc(C2(O)CN(c3ccc(Br)cc3)C(=O)N2c2ccc(Br)cc2)c1 (centres unmarked) [Example 30, 1,3-bis(4-bromophenyl)-4-hydroxy-4-(3-methoxyphenyl)imidazolidin-2-one] | 1 to 10
O=C1N(c2ccc(Br)cc2)C(=O)C(O)(c2cc3ccccc3s2)N1c1ccc(Br)cc1 (centres unmarked) [Example 214, 5-(benzo[b]thiophen-2-yl)-1,3-bis(4-bromophenyl)-5-hydroxyimidazolidine-2,4-dione] | 10 to 50
O=C1N(c2ccc(Cl)cc2)C(c2ccccc2)C(O)(CO)N1c1ccc(Cl)cc1 (centres unmarked) [Example 218, 1,3-bis(4-chlorophenyl)-4-hydroxy-4-(hydroxymethyl)-5-phenylimidazolidin-2-one] | 10 to 50
Cc1csc(-c2c(C)n(-c3ccc(Br)cc3)c(=O)n2-c2ccc(Br)cc2)c1 [Compound 266, 1,3-bis(4-bromophenyl)-4-methyl-5-(4-methylthiophen-2-yl)-1,3-dihydro-2H-imidazol-2-one] | 1 to 10
O=C1N(c2ccc(Cl)cc2)C2(CCCC2)C(O)(c2cccc(OC(F)(F)F)c2)N1c1ccc(Cl)cc1 (centres unmarked) [Compound 146, 1,3-bis(4-chlorophenyl)-4-hydroxy-4-(3-(trifluoromethoxy)phenyl)-1,3-diazaspiro[4.4]nonan-2-one] | < 1
CC1N(c2ccc(Br)cc2)C(=O)N(c2ccc(Br)cc2)C1(O)c1ccccc1 (centres unmarked) [Example 13] | < 1
N#Cc1cccc(C2(O)N(c3ccc(Cl)cc3)C(=O)N(c3ccc(Cl)cc3)C23CCOC3)c1 (centres unmarked) [Example 221, 3-(1,3-bis(4-chlorophenyl)-4-hydroxy-2-oxo-7-oxa-1,3-diazaspiro[4.4]nonan-4-yl)benzonitrile] | < 1
O=C1N(c2ccc(Br)cc2)C(=O)C(O)(c2ccc(-c3ccc(F)cc3)cc2)N1c1ccc(Br)cc1 (centres unmarked) [Example 178, 1,3-bis(4-bromophenyl)-5-(4′-fluoro-[1,1′-biphenyl]-4-yl)-5-hydroxyimidazolidine-2,4-dione] | > 50
Cc1c(-c2cccc(C(C)O)c2)n(-c2ccc(Cl)cc2)c(=O)n1-c1ccc(Cl)cc1 (centres unmarked) [Example 37, 1,3-bis(4-chlorophenyl)-4-(3-(1-hydroxyethyl)phenyl)-5-methyl-1,3-dihydro-2H-imidazol-2-one] | 1 to 10
CCCCC1(O)CN(c2ccc(Br)cc2)C(=O)N1c1ccc(Br)cc1 (centres unmarked) [Example 6, 1,3-bis(4-bromophenyl)-4-butyl-4-hydroxyimidazolidin-2-one] | > 50

Next, values leading:

IC50 [µM] | SMILES
10 to 50 | CC[C@@]1(C)N(c2ccc(Cl)cc2)C(=O)N(c2ccc(Cl)cc2)C1(O)c1cccc(C#N)c1 (single isomer, unassigned) [Example 185-1]
1 to 10 | C[C@@H]1N(c2ccc(Br)cc2)C(=O)N(c2ccc(Br)cc2)C1(O)c1cccs1 (some centres unmarked) [Example 49-1]
< 1 | CCc1cccc(C2(O)[C@H](C)N(c3ccc(Br)cc3)C(=O)N2c2ccc(Br)cc2)c1 (stereo partly drawn) [Compound 68-1, (5S)-1,3-bis(4-bromophenyl)-4-(3-ethylphenyl)-4-hydroxy-5-methylimidazolidin-2-one]
< 1 | O=C1N(c2ccc(Cl)cc2)[C@@]2(CCOC2)[C@@](O)(c2cccc(OC(F)(F)F)c2)N1c1ccc(Cl)cc1 [Compound 234-4, (4S,5R)-1,3-bis(4-chlorophenyl)-4-hydroxy-4-(3-(trifluoromethoxy)phenyl)-7-oxa-1,3-diazaspiro[4.4]nonan-2-one]
< 1 | CCC1N(c2ccc(Br)cc2)C(=O)N(c2ccc(Br)cc2)C1(O)c1cccc(OC(F)(F)F)c1 (stereo in doubt) [Compound 83-1, (5S)-1,3-bis(4-bromophenyl)-5-ethyl-4-hydroxy-4-(3-(trifluoromethoxy)phenyl)imidazolidin-2-one]
< 1 | C#Cc1cccc(C2(O)[C@H](C)N(c3ccc(Cl)cc3)C(=O)N2c2ccc(Cl)cc2)c1 (stereo partly drawn) [Compound 93-1, (5S)-1,3-bis(4-chlorophenyl)-4-(3-ethynylphenyl)-4-hydroxy-5-methylimidazolidin-2-one]
1 to 10 | CC[C@@H]1N(c2ccc(F)cc2)C(=O)N(c2ccc(F)cc2)C1(O)c1cccc(C(F)(F)F)c1 (single isomer, unassigned) [Compound 139-1]
10 to 50 | CCC1(O)[C@@H](c2ccccc2)N(c2ccc(Br)cc2)C(=O)N1c1ccc(Br)cc1 (some centres unmarked) [Example 45-2]
< 1 | C[C@]1(C(F)(F)F)N(c2ccc(Cl)cc2)C(=O)N(c2ccc(Cl)cc2)C1(O)c1cccc(C#N)c1 (single isomer, unassigned) [Example 177-1]
< 1 | CC[C@H]1N(c2ccc(Cl)cc2)C(=O)N(c2ccc(Cl)cc2)C1(O)c1cccc(C(F)(F)F)c1 (stereo partly drawn) [Compound 80-2, (5R)-1,3-bis(4-chlorophenyl)-5-ethyl-4-hydroxy-4-(3-(trifluoromethyl)phenyl)imidazolidin-2-one]
< 1 | CCC1(O)[C@H](c2ccccc2)N(c2ccc(Br)cc2)C(=O)N1c1ccc(Br)cc1 (some centres unmarked) [Example 45-1]
< 1 | CC[C@@H]1N(c2ccc(Br)cc2)C(=O)N(c2ccc(Br)cc2)C1(O)c1cccc(C)c1 (stereo partly drawn) [Compound 76-1, (5S)-1,3-bis(4-bromophenyl)-5-ethyl-4-hydroxy-4-(m-tolyl)imidazolidin-2-one]
< 1 | CN(C)C[C@H]1N(c2ccc(Cl)cc2)C(=O)N(c2ccc(Cl)cc2)C1(O)c1cccc(OC(F)(F)F)c1 (single isomer, unassigned) [Example 166-2]
< 1 | O=C1N(c2ccc(Cl)cc2)[C@]2(CCOC2)[C@@](O)(c2cccc(OC(F)(F)F)c2)N1c1ccc(Cl)cc1 [Compound 234-2, (4S,5S)-1,3-bis(4-chlorophenyl)-4-hydroxy-4-(3-(trifluoromethoxy)phenyl)-7-oxa-1,3-diazaspiro[4.4]nonan-2-one]
1 to 10 | O=C1N(c2ccc(Cl)cc2)[C@H]([C@H]2CCCO2)C(O)(c2cccc(Cl)c2)N1c1ccc(Cl)cc1 (single isomer, unassigned) [Compound 117-2]
